In this assay the target is Dual specificity tyrosine-phosphorylation-regulated kinase 1A (Homo sapiens, UniProt Q13627). The experiment in a line: Inhibition of GST-tagged human DYRK1A using dephosphorylated MBP as substrate after 10 mins by Kinase-Glo plus luminescent kinase assay.

The term IC50 denotes the concentration at which inhibition is half-maximal. In the case of `O=C(O[C@@H]1Cc2c(O)cc(O)cc2O[C@@H]1c1cc(O)c(O)c(O)c1)c1cc(O)c(O)c(O)c1` [EPIGALOCATECHIN GALLATE], the IC50 came to 13.4 µM.

The values above are taken from ChEMBL document CHEMBL1932955, “Discovery of potent small molecule inhibitors of DYRK1A by structure-based virtual screening and bioassay” (Bioorg Med Chem Lett, 2012).
